Test results reported in patent publication US20110003892A1, “ALL-TRANS RETINOID ESTERS AS ACTIVE PHARMACEUTICAL INGREDIENTS, ORAL AND TOPICAL DOSAGE FORM COMPOSITIONS THEREOF, AND METHODS OF TREATING SKIN CONDITIONS THEREOF” (priority 2008, published 2011).

Tests used:
[1] = test system: RARs; details: Repa J J et al., 1993; cited from earlier work
[2] = test system: Rhino mice; test: Comedolytic effect in orally dosed Rhino mice (comedone area by histology); format: in vivo; details: oral treatment; for dose producing maximal reduction in comedone size as compared to the vehicle control: 24 days (FIG. 1); for reduction in comedone area: each retinoid alone, 24 days, various doses (FIG. 1)
Experimental: (§1) Animals and dose administration. Rhino mice 6-8 weeks old were orally dosed. The mice were dosed daily. The mice were weighed three times per week, and doses were adjusted weekly based on body weight. The oral formulation was made by mixing each API with Wesson® soybean oil. The oral dose was delivered to the back of the mouth of each mouse. Mice were sacrificed 4 hours after the final oral dose. At sacrifice, the dorsal skin was collected for histological studies.
Comedolytic effect. The extent of the comedolytic effect (i.e., efficacy) was assessed by measuring the average area of the comedones, whereby the smaller the area, the larger the effect and efficacy. The comedone area was determined by histological analysis of tissue sections. Skin was fixed overnight in 4% paraformaldehyde at 4° C. with gentle agitation, and the skin was dehydrated the next day in 100% methanol. Samples were embedded in paraffin and a qty. nine 10μ sections each spaced 150μ apart were prepared from each Rhino mouse. Five of the nine sections were digitally imaged (6× magnification) for comedone analysis using Metamorph Imaging Software (trace function).
The perimeter of each imaged comedone taken from the 5 sections was traced using a Wacom Intuos 3 Graphics Tablet interfaced with the software. The number of pixels representing each individual comedone area was obtained. The mean number of pixels per comedone was obtained for each Rhino mouse. For comedones that were completely healed (i.e., area=0), a pixel value approaching 0 (<10) was assessed. The individual comedone average for each mouse was used to calculate the treatment group mean. Results in the figures herein have been expressed in terms of mean±standard error of the mean.
Preparation of oral retinoid dosing formulations. A concentrated stock solution containing each retinoid was prepared in dichloromethane. The retinoid concentrated stock solution was diluted into ethanol. The concentration of retinoid in that diluted stock solution was determined spectrophotometrically, whereby the molar extinction coefficient=44,340 and λmax=350. The purity of the SB-RA, IPE-RA, IB-RA, and t-butyl RA was determined to be greater than 98% by HPLC. A predetermined volume of retinoid-containing solution was added to Wesson® oil, the sample was mixed, and the residual dichloromethane was removed by flushing the oil with argon for 2-3 hours under a vapor hood. The final dose was delivered orally using ≦50 μL of oil.

[3] = Body weight change from baseline in orally dosed Rhino mice; format: in vivo; details: oral treatment, 24 days, any dose of retinoid studied (FIG. 2)
Experimental: as §1

Structure (SMILES)	binding to the RARs [1]	dose producing maximal reduction in comedone size as compared to the vehicle control [2]	reduction in comedone area [2]	% change from the starting baseline weight (overall group weight) [3]
CC1=C(/C=C/C(C)=C/C=C/C(C)=C\C(=O)O)C(C)(C)CCC1 [13-cis retinoic acid]	does not bind			
CC1=C(/C=C/C(C)=C/C=C/C(C)=C/C(=O)OCC(C)C)C(C)(C)CCC1 [IB-RA, All-trans-retinoic acid iso-butyl ester]		26.2 μmole/kgBW	significant dose-dependent reduction	no significant reduction
CC1=C(/C=C/C(C)=C/C=C/C(C)=C/C(=O)OC(C)C)C(C)(C)CCC1 [IPE-RA, all-trans-retinoic acid iso-propyl ester]		26.2 μmole/kgBW	significant dose-dependent reduction	no significant reduction
CCC(C)OC(=O)/C=C(C)/C=C/C=C(C)/C=C/C1=C(C)CCCC1(C)C (stereo not drawn) [SB-RA, all-trans-retinoic acid sec-butyl ester]		26.2 μmole/kgBW	significant dose-dependent reduction	no significant reduction
CC1=C(/C=C/C(C)=C/C=C/C(C)=C/C(=O)OC(C)(C)C)C(C)(C)CCC1 [t-butyl-RA, all-trans-retinoic acid tert-butyl ester]		166 μmole/kgBW	significant dose-dependent reduction	no significant reduction
